This is an account of results in US20100298205A1, “METHODS AND COMPOSITIONS FOR THE TREATMENT OF CONDITIONS RELATED TO GASTRIC ACID SECRETION” (priority 2004, published 2010).

Tested on in one data set: not listed separately
Nature of the data set: Caco-2 membrane permeability / bi-directional transport (Papp). It counts as in vitro ADME, human. To be noted: human; Caco-2 cells, A to B, 10 μM. How it is done: (§1) Determination of membrane permeability in all examples described herein was accomplished by the following procedure. This procedure is also used to determine whether a given prodrug falls within the scope of those claims given herein which relate to membrane permeability.
(§2) DMEM was equilibrated as a transport buffer in 37° C. water bath an hour before experiment. The cells were then equilibrated in transport buffer for 1 hr at 37° C.
(§3) Dosing solution (10 μM) was prepared by adding a 20 μL aliquot of a 10 mM stock solution of the prodrug to 20 mL of transport buffer.
(§4) Transport buffer was removed from both apical and basolateral compartment of filters. […] […] Fresh transport buffer (400 μL) was added back to the basolateral compartment, and the fluid was thoroughly mixed.
(§5) Lucifer yellow (LY) was used as a paracellular permeability reference standard to determine integrity of cell layers used in the experiments. LY transport in the apical to basolateral direction was carried out in the same manner as described above. Fluorescence level in basolateral fluid sampled at 5, 20, and 60 min post dose was determined using Fluostar Galaxy (BMG Labtechnologies, Durham, N.C.) at excitation/emission wavelengths of 485/520 nm. A standard curve covering the range from 0.002 to 0.5 mg/mL is constructed to quantify the amount of LY in the transport sample to calculate permeability coefficient (Papp).
A word on the Papp A→B: it is the apparent permeability from the apical to the basolateral side of a cell layer. In turn, `COc1ccc2[nH]c([S+]([O-])Cc3ncc(C)c(OC)c3C)nc2c1` (stereo not drawn) [Omeprazole] came in with a Papp A→B at 60 min, 10 μM of 12.6 ×10⁻⁶ cm/s.

The same data set, now with this note: human; Caco-2 cells, B to A, 10 μM.
In general, Papp B→A refers to the apparent permeability from the basolateral to the apical side of a cell layer. `COc1ccc2[nH]c([S+]([O-])Cc3ncc(C)c(OC)c3C)nc2c1` (stereo not drawn) [Omeprazole] showed an apparent permeability from basolateral to apical (Papp B→A) at 60 min, 10 μM of 16.3 ×10⁻⁶ cm/s.

Still in this data set, the particulars now being: human; Caco-2 cells; read-out: Ratio Papp BA/Papp AB.
On to `COc1ccc2[nH]c([S+]([O-])Cc3ncc(C)c(OC)c3C)nc2c1` (stereo not drawn) [Omeprazole], for which the efflux ratio at 60 min, 10 µM came to 1.29.

Another data set deals with Caco-2 cells. The data set is described as above. It counts as in vitro ADME, human. To be noted: apical to basolateral, 10 μM, 37° C. As for the experimental part:
as §1, §2, §3, §4, §5
In the case of `COc1ccc(S(=O)(=O)n2c([S+]([O-])Cc3nccc(OCC(F)(F)F)c3C)nc3ccccc32)cc1C(=O)O` (stereo not drawn) [Compound 8], the Permeability was determined as 0.23 ×10⁻⁶ cm/s.

For `Cc1c(OCC(F)(F)F)ccnc1C[S+]([O-])c1nc2ccccc2n1S(=O)(=O)c1cccc(C(=O)O)c1` (stereo not drawn) [Compound 7], the Permeability was found to be 0.16 ×10⁻⁶ cm/s.

Molecule `Cc1c(OCC(F)(F)F)ccnc1C[S+]([O-])c1nc2ccccc2n1S(=O)(=O)c1ccc(CC(=O)O)cc1` (stereo not drawn) [Compound 9] gave a Permeability of 0.34 ×10⁻⁶ cm/s.

For a further data set, the system named is MDR1. In words: MDR1-MDCK bi-directional transport (Papp). It counts as in vitro ADME. To be noted: dog; MDR1-MDCK cells, B to A, 10 μM.
Text: as §1
• Test System: Cultured Caco-2 cells and MDR1-MDCK cells • Seeding Density: 2×10^5 cells/cm^2 in Costar 12 well Transwell™plates • Culture Age: 17-21 days post seeding for Caco-2 cells, 2-3 days post seeding for MDR1-MDCK cells • Source: American Type Culture Collection, Manassas, Va. […]
The apparent permeability coefficient (Papp, cm/sec), otherwise known herein as the membrane permeability, is determined from the following relationship: […]
The transport rate J, is calculated as the slope of the linear regression fit for the transport amount over time data using Microsoft Excel® 97 SR-2 (Microsoft Corp. Redmond, Wash.),
Lucifer yellow (LY) was used as a paracellular permeability reference standard to determine integrity of cell layers used in the experiments. […] Fluorescence level in basolateral fluid sampled at 5, 20, and 60 min post dose was determined using Fluostar Galaxy (BMG Labtechnologies, Durham, N.C.) at excitation/emission wavelengths of 485/520 nm. […]
As to `COc1ccc2[nH]c([S+]([O-])Cc3ncc(C)c(OC)c3C)nc2c1` (stereo not drawn) [Omeprazole], the Papp B→A at 60 min, 10 μM came out at 17.1 ×10⁻⁶ cm/s.

Staying with this data set, now noted: dog; MDR1-MDCK cells; read-out: Ratio Papp BA/Papp AB.
`COc1ccc2[nH]c([S+]([O-])Cc3ncc(C)c(OC)c3C)nc2c1` (stereo not drawn) [Omeprazole]: the efflux ratio at 60 min, 10 µM was determined as 1.52.

Tested on in another data set: not listed separately
Nature of the data set: Pharmacokinetics in rats after oral or intravenous administration. It counts as in vivo, rats (Sprague-Dawley). More on the design: key to Rat T1/2 Prodrug: NC: plasma concentration of prodrug was too low to calculate half-life, or undetected; Rat T1/2 PPI: unit not given here. To be noted: oral, systemic half-life of intact prodrug, parenthesis = standard deviation. How it is done: (§6) Blood concentrations of the compounds omeprazole, lansoprazole, pantoprazole, rabeprazole, and test compounds were quantified using an achiral liquid chromatography tandem mass spectrometry method (LC-MS/MS). Systemic pharmacokinetic parameters were determined for omeprazole or lansoprazole using non-compartmental analysis in Watson® version 6.3, available from InnaPhase Corporation, Philadelphia, Pa.
Take `Cc1ccc(C(=O)O)cc1S(=O)(=O)n1c([S+]([O-])Cc2nccc(OCC(F)(F)F)c2C)nc2ccccc21` (stereo not drawn) [Compound 13]: the “Rat T1/2 Prodrug” value is “NC”.

`COc1ccc(S(=O)(=O)n2c([S+]([O-])Cc3nccc(OCC(F)(F)F)c3C)nc3ccccc32)cc1C(=O)O` (stereo not drawn) [Compound 8]: the “Rat T1/2 Prodrug” value is “NC”.

Turning to `Cc1c(OCC(F)(F)F)ccnc1C[S+]([O-])c1nc2ccccc2n1S(=O)(=O)c1cccc(C(=O)O)c1` (stereo not drawn) [Compound 7], the “Rat T1/2 Prodrug” value is “NC”.

With `Cc1c(OCC(F)(F)F)ccnc1C[S+]([O-])c1nc2ccccc2n1S(=O)(=O)c1ccc(CC(=O)O)cc1` (stereo not drawn) [Compound 9], the “Rat T1/2 Prodrug” value is given as “NC”.

Consider `Cc1c(OCC(F)(F)F)ccnc1C[S+]([O-])c1nc2ccccc2n1S(=O)(=O)c1ccc(OCC(C)(C)C(=O)O)cc1` (stereo not drawn) [Compound 11], for which the “Rat T1/2 Prodrug” value is “NC”.

Still in this data set, the particulars now being: oral, systemic half-life of the proton pump inhibitor, parenthesis = standard deviation.
With `Cc1ccc(C(=O)O)cc1S(=O)(=O)n1c([S+]([O-])Cc2nccc(OCC(F)(F)F)c2C)nc2ccccc21` (stereo not drawn) [Compound 13], the “Rat T1/2 PPI” value is 2.35 (1.22).

As to `COc1ccc(S(=O)(=O)n2c([S+]([O-])Cc3nccc(OCC(F)(F)F)c3C)nc3ccccc32)cc1C(=O)O` (stereo not drawn) [Compound 8], the “Rat T1/2 PPI” value was 1.80 (1.20).

In the case of `COc1ccc(C(=O)O)cc1S(=O)(=O)n1c([S+]([O-])Cc2nccc(OCC(F)(F)F)c2C)nc2ccccc21` (stereo not drawn) [Compound 14], the “Rat T1/2 PPI” value was 0.536 (0.217).

In the case of `Cc1c(OCC(F)(F)F)ccnc1C[S+]([O-])c1nc2ccccc2n1S(=O)(=O)c1cccc(C(=O)O)c1` (stereo not drawn) [Compound 7], the “Rat T1/2 PPI” value is given as 1.93 (1.41).

Regarding `Cc1c(OCC(F)(F)F)ccnc1C[S+]([O-])c1nc2ccccc2n1S(=O)(=O)c1ccc(CC(=O)O)cc1` (stereo not drawn) [Compound 9], the “Rat T1/2 PPI” value was 0.341 (0.151).

Turning to `Cc1c(OCC(F)(F)F)ccnc1C[S+]([O-])c1nc2ccccc2n1S(=O)(=O)c1ccc(OCC(C)(C)C(=O)O)cc1` (stereo not drawn) [Compound 11], the “Rat T1/2 PPI” value was 0.933 (1.009).

Tested on in the next data set: not listed separately
Nature of the data set: Pharmacokinetics in dogs after oral or intravenous administration. It is filed as in vivo, dogs (beagle). Also noted: key to Dog T1/2 Prodrug: NC: plasma concentration of prodrug was too low to calculate half-life, or undetected. To be noted: dog; oral; systemic half-life of intact prodrug; parenthesis = standard deviation. As for the experimental part: as §6
With `Cc1ccc(C(=O)O)cc1S(=O)(=O)n1c([S+]([O-])Cc2nccc(OCC(F)(F)F)c2C)nc2ccccc21` (stereo not drawn) [Compound 13], the Dog T1/2 Prodrug was 7.32 min.

For the molecule `Cc1c(OCC(F)(F)F)ccnc1C[S+]([O-])c1nc2ccccc2n1S(=O)(=O)c1ccc(OCC(=O)O)cc1` (stereo not drawn) [Compound 10], the “Dog T1/2 Prodrug” value was “NC”.

For `COc1ccc(S(=O)(=O)n2c([S+]([O-])Cc3nccc(OCC(F)(F)F)c3C)nc3ccccc32)cc1C(=O)O` (stereo not drawn) [Compound 8], the “Dog T1/2 Prodrug” value was “NC”.

On to `COc1ccc(C(=O)O)cc1S(=O)(=O)n1c([S+]([O-])Cc2nccc(OCC(F)(F)F)c2C)nc2ccccc21` (stereo not drawn) [Compound 14], for which the Dog T1/2 Prodrug is 7.08 min.

Turning to `Cc1c(OCC(F)(F)F)ccnc1C[S+]([O-])c1nc2ccccc2n1S(=O)(=O)c1ccc(CC(=O)O)cc1C(C)C` (stereo not drawn) [Compound 15], the “Dog T1/2 Prodrug” value is reported as “NC”.

As for `Cc1c(OCC(F)(F)F)ccnc1C[S+]([O-])c1nc2ccccc2n1S(=O)(=O)c1cccc(C(=O)O)c1` (stereo not drawn) [Compound 7], the Dog T1/2 Prodrug was 12.4 min.

With `Cc1c(OCC(F)(F)F)ccnc1C[S+]([O-])c1nc2ccccc2n1S(=O)(=O)c1ccc(CC(=O)O)cc1` (stereo not drawn) [Compound 9], the “Dog T1/2 Prodrug” value is on record as “NC”.

With `Cc1c(OCC(F)(F)F)ccnc1C[S+]([O-])c1nc2ccccc2n1S(=O)(=O)c1ccc(OCC(C)(C)C(=O)O)cc1` (stereo not drawn) [Compound 11], the “Dog T1/2 Prodrug” value is “NC”.

On to `Cc1c(OCC(F)(F)F)ccnc1C[S+]([O-])c1nc2ccccc2n1S(=O)(=O)c1ccc(CC(=O)O)c(CC(=O)O)c1` (stereo not drawn) [Compound 12], for which the “Dog T1/2 Prodrug” value is “NC”.

The same data set, now with this note: dog; oral; systemic half-life of the proton pump inhibitor; parenthesis = standard deviation.
With `Cc1ccc(C(=O)O)cc1S(=O)(=O)n1c([S+]([O-])Cc2nccc(OCC(F)(F)F)c2C)nc2ccccc21` (stereo not drawn) [Compound 13], the Dog T1/2 PPI is 106 min.

`Cc1c(OCC(F)(F)F)ccnc1C[S+]([O-])c1nc2ccccc2n1S(=O)(=O)c1ccc(OCC(=O)O)cc1` (stereo not drawn) [Compound 10]: the “Dog T1/2 PPI” value is given as 0.989 (0.307).

`COc1ccc(S(=O)(=O)n2c([S+]([O-])Cc3nccc(OCC(F)(F)F)c3C)nc3ccccc32)cc1C(=O)O` (stereo not drawn) [Compound 8]: the Dog T1/2 PPI is 64.8 min.

Consider `COc1ccc(C(=O)O)cc1S(=O)(=O)n1c([S+]([O-])Cc2nccc(OCC(F)(F)F)c2C)nc2ccccc21` (stereo not drawn) [Compound 14], for which the Dog T1/2 PPI was 83.4 min.

Consider `Cc1c(OCC(F)(F)F)ccnc1C[S+]([O-])c1nc2ccccc2n1S(=O)(=O)c1ccc(CC(=O)O)cc1C(C)C` (stereo not drawn) [Compound 15], for which the Dog T1/2 PPI is 55.4 min.

`Cc1c(OCC(F)(F)F)ccnc1C[S+]([O-])c1nc2ccccc2n1S(=O)(=O)c1cccc(C(=O)O)c1` (stereo not drawn) [Compound 7]: the Dog T1/2 PPI was 53.6 min.

In the case of `Cc1c(OCC(F)(F)F)ccnc1C[S+]([O-])c1nc2ccccc2n1S(=O)(=O)c1ccc(CC(=O)O)cc1` (stereo not drawn) [Compound 9], the Dog T1/2 PPI is 53.6 min.

For `Cc1c(OCC(F)(F)F)ccnc1C[S+]([O-])c1nc2ccccc2n1S(=O)(=O)c1ccc(OCC(C)(C)C(=O)O)cc1` (stereo not drawn) [Compound 11], the “Dog T1/2 PPI” value was 0.873 (0.288).

Take `Cc1c(OCC(F)(F)F)ccnc1C[S+]([O-])c1nc2ccccc2n1S(=O)(=O)c1ccc(CC(=O)O)c(CC(=O)O)c1` (stereo not drawn) [Compound 12]: the Dog T1/2 PPI is 55.9 min.

Still in this data set, the particulars now being: systemic half-life of PPI in dogs after oral administration.
Turning to `COc1ccc(S(=O)(=O)n2c([S+]([O-])Cc3nccc(OCC(F)(F)F)c3C)nc3ccccc32)cc1C(=O)O` (stereo not drawn) [Compound 8], the t1/2 is 66 min.

For the molecule `Cc1c(OCC(F)(F)F)ccnc1C[S+]([O-])c1nc2ccccc2n1S(=O)(=O)c1cccc(C(=O)O)c1` (stereo not drawn) [Compound 7], the t1/2 is 53.4 min.

Consider `Cc1c(OCC(F)(F)F)ccnc1C[S+]([O-])c1nc2ccccc2n1S(=O)(=O)c1ccc(CC(=O)O)cc1` (stereo not drawn) [Compound 9], for which the t1/2 was 53.4 min.

Tested on in the next data set: not given
Test: not given
To be noted: pH 5; somewhat buffer dependent; Kromer et al., Ekpe et al.; cited from earlier work.
Consider `COc1ccc2[nH]c([S+]([O-])Cc3ncc(C)c(OC)c3C)nc2c1` (stereo not drawn) [Omeprazole], for which the “typical half-life (stability)” value is on record as “about 1 hour”.

Still in this data set, the particulars now being: pH 7; somewhat buffer dependent; Kromer et al., Ekpe et al.; cited from earlier work.
On to `COc1ccc2[nH]c([S+]([O-])Cc3ncc(C)c(OC)c3C)nc2c1` (stereo not drawn) [Omeprazole], for which the “typical half-life (stability)” value is “about 40 hours”.
